# Assay results from patent US20260274857A1, “CRYSTAL OF DIHYDROPYRIDINONE DERIVATIVE OR SOLVATE THEREOF” (Shionogi & Co., Ltd., priority 2022, published 2026).
# Columns and labels:
# [1] = Moisture adsorption/desorption isotherm measurement (DVS); type: physicochemical; conditions: for difference in water content between 0% RH and 95% RH: 25° C.
# From the text: The moisture adsorption/desorption isotherm measurement is a measurement method for measuring the adsorption and desorption behavior of moisture by measuring a weight change in a solid as a measurement target under each relative humidity condition.
# As a basic measurement method, based on the dry weight at 0% RH (relative humidity 0%), the relative humidity is increased every 5% or 10%, and after the weight is stabilized at each relative humidity, the amount of adsorbed water can be determined from the weight increase from the reference value. Similarly, the desorption amount of water can be measured by decreasing the relative humidity every 5% or 10% from 100% RH or 95% RH.
# By plotting the value of the weight change at each relative humidity, an adsorption/desorption isotherm can be obtained.
# Sorption and desorption of adhesion water and crystal water are affected by particle size, crystallinity, crystal habit, and the like, so that the measurement results may slightly change.
# The crystals and amorphous substances obtained in each Example were weighed in an aluminum pan, and allowed to stand at 25° C. and a relative humidity of 0%. The measurement was started after the compound was sufficiently dried and the weight was stabilized, and the weight when the relative humidity changed from 0% to 95% by 5% was recorded. Next, the weight when the relative humidity changed from 95% to 0% by 5% was recorded.
# Device: DVS Advantage manufactured by Surface Measurement Systems
# [2] = Solid stability test: storage stability (amount of analogous substance by HPLC, appearance); type: physicochemical; conditions: temperature, temperature and humidity conditions, light irradiation; analogous substance by HPLC and appearance
# Procedure: For the solid stability of the crystal of the compound represented by Formula (I) obtained in Example 1 and the crystal of the compound represented by Formula (II) obtained in Example 16, the chemical stability under temperature, temperature and humidity conditions, and light irradiation was evaluated. The proportion (%) of the analogous substance produced by an HPLC method and the change in appearance were evaluated.
# About 10 mg of the crystal was accurately weighed in a 2 mL glass container with a polyethylene stopper. After the glass container was closed, the glass container was stored at 40° C. or 60° C. for 2 weeks, 1 month, 2 months, 3 months, or 6 months. A sample stored at 40° C. is referred to as a 40° C. hermetically sealed product, and a sample stored at 60° C. is referred to as a 60° C. hermetically sealed product. In a state where the glass container was opened, the glass container was stored at a relative humidity of 75±5% at 40° C. or a relative humidity of 89±5% for 2 weeks, 1 month, 2 months, 3 months or 6 months, or in the presence of silica gel at 40° C. for 1 month, 2 months, 3 months or 6 months. A sample stored at 40° C. and a relative humidity of 75±5% or 89±5% is referred to as a 40° C. and 75% relative humidity (also referred to as 40±2° C./75±5% RH) or 40° C. and 89% relative humidity (also referred to as 40±2° C./89% RH) stored product, and a sample stored in the presence of silica gel at 40° C. is referred to as a 40° C. stored product. The −40° C. hermetically sealed product was used as a standard product.
# The amount of the analogous substance was measured by an area percentage method by the HPLC method under the following conditions.
# HPLC Conditions 1 were used for the crystal and amorphous substance of the compound represented by Formula (I) obtained in Example 1, and HPLC conditions 2 were used for the crystal of the compound represented by Formula (II) obtained in Example 16.
# • Detector: ultraviolet absorptiometer (measurement wavelength: 260 nm) • Column: YMC-Triart C18 ExRS, S-1.9 μm, 3.0×100 mm • Column temperature: constant temperature at near 40° C. • Mobile phase A: 0.1% formic acid aqueous solution • Mobile phase B: acetonitrile • Flow rate: about 0.6 mL/min • Injection amount: 3 μL • Sample cooler temperature: about 6° C. • Feed of mobile phase: The mixing ratio of mobile phase A and mobile phase B was changed as shown in Table 18 to control concentration gradient.
# Column: Cortecs (2.7 μm 3.0×100 mm)
# Column temperature: 40° C.
# UV detection wavelength: 254 nm
smiles,measurement,setting,value
Cc1ccc(-n2nc3c(c2NC(=O)CS(C)(=O)=O)C(=O)NC2(CCOc4cc(F)cc(F)c42)C3)nc1 (stereo not drawn),Moisture adsorption amount (%),[1]; relative humidity 0.0%,0.002%
same,Moisture desorption amount (%),[1]; relative humidity 0.0%,−0.433%
same,Moisture adsorption amount (%),[1]; relative humidity 5.0%,0.676%
same,Moisture desorption amount (%),[1]; relative humidity 5.0%,0.606%
same,Moisture adsorption amount (%),[1]; relative humidity 10.0%,1.020%
same,Moisture desorption amount (%),[1]; relative humidity 10.0%,1.196%
same,Moisture adsorption amount (%),[1]; relative humidity 15.0%,1.312%
same,Moisture desorption amount (%),[1]; relative humidity 15.0%,1.674%
same,Moisture adsorption amount (%),[1]; relative humidity 20.0%,1.574%
same,Moisture desorption amount (%),[1]; relative humidity 20.0%,2.131%
same,Moisture adsorption amount (%),[1]; relative humidity 25.0%,1.807%
same,Moisture desorption amount (%),[1]; relative humidity 25.0%,2.495%
same,Moisture adsorption amount (%),[1]; relative humidity 30.0%,2.015%
same,Moisture desorption amount (%),[1]; relative humidity 30.0%,2.831%
same,Moisture adsorption amount (%),[1]; relative humidity 35.0%,2.213%
same,Moisture desorption amount (%),[1]; relative humidity 35.0%,3.157%
same,Moisture adsorption amount (%),[1]; relative humidity 40.0%,2.414%
same,Moisture desorption amount (%),[1]; relative humidity 40.0%,3.423%
same,Moisture adsorption amount (%),[1]; relative humidity 45.0%,2.589%
same,Moisture desorption amount (%),[1]; relative humidity 45.0%,3.699%
same,Moisture adsorption amount (%),[1]; relative humidity 50.0%,2.780%
same,Moisture desorption amount (%),[1]; relative humidity 50.0%,3.913%
same,Moisture adsorption amount (%),[1]; relative humidity 55.0%,2.976%
same,Moisture desorption amount (%),[1]; relative humidity 55.0%,4.135%
same,Moisture adsorption amount (%),[1]; relative humidity 60.0%,3.185%
same,Moisture desorption amount (%),[1]; relative humidity 60.0%,4.411%
same,Moisture adsorption amount (%),[1]; relative humidity 65.0%,3.384%
same,Moisture desorption amount (%),[1]; relative humidity 65.0%,4.683%
same,Moisture adsorption amount (%),[1]; relative humidity 70.0%,3.623%
same,Moisture desorption amount (%),[1]; relative humidity 70.0%,5.151%
same,Moisture adsorption amount (%),[1]; relative humidity 75.0%,3.914%
same,Moisture desorption amount (%),[1]; relative humidity 75.0%,5.420%
same,Moisture adsorption amount (%),[1]; relative humidity 80.0%,4.320%
same,Moisture desorption amount (%),[1]; relative humidity 80.0%,5.865%
same,Moisture adsorption amount (%),[1]; relative humidity 85.0%,4.850%
same,Moisture desorption amount (%),[1]; relative humidity 85.0%,6.219%
same,Moisture adsorption amount (%),[1]; relative humidity 90.0%,5.604%
same,Moisture desorption amount (%),[1]; relative humidity 90.0%,6.599%
same,Moisture adsorption amount (%),[1]; relative humidity 95.0%,6.974%
same,Moisture desorption amount (%),[1]; relative humidity 95.0%,6.974%
CS(=O)(=O)CC(=O)Nc1c2c(nn1CCCOC(F)(F)F)C[C@@]1(CCOc3cc(OCC(F)(F)F)ccc31)NC2=O [amorphous substance of the compound represented by Formula (],difference in water content between 0% RH and 95% RH,[1]; DVS,about 2.6%
CS(=O)(=O)CC(=O)Nc1c2c(nn1CCCOC(F)(F)F)C[C@@]1(CCOc3cc(OCC(F)(F)F)ccc31)NC2=O [crystal of the compound represented by Formula (II) obtained],solid stability (in words),[2],excellent in solid stability under any conditions
same,hygroscopicity (in words),"[1]; DVS, 0% to 95% RH",no problem in hygroscopicity
same,difference in water content between 0% RH and 95% RH,[1]; DVS,about 0.4%
same,Moisture adsorption amount (%),[1]; relative humidity 0.0%,0.0000%
same,Moisture desorption amount (%),[1]; relative humidity 0.0%,0.0690%
same,Moisture adsorption amount (%),[1]; relative humidity 5.0%,0.0149%
same,Moisture desorption amount (%),[1]; relative humidity 5.0%,0.1029%
same,Moisture adsorption amount (%),[1]; relative humidity 10.0%,0.0250%
same,Moisture desorption amount (%),[1]; relative humidity 10.0%,0.1252%
same,Moisture adsorption amount (%),[1]; relative humidity 15.0%,0.0352%
same,Moisture desorption amount (%),[1]; relative humidity 15.0%,0.1435%
same,Moisture adsorption amount (%),[1]; relative humidity 20.0%,0.0494%
same,Moisture desorption amount (%),[1]; relative humidity 20.0%,0.1610%
same,Moisture adsorption amount (%),[1]; relative humidity 25.0%,0.0623%
same,Moisture desorption amount (%),[1]; relative humidity 25.0%,0.1773%
same,Moisture adsorption amount (%),[1]; relative humidity 30.0%,0.0758%
same,Moisture desorption amount (%),[1]; relative humidity 30.0%,0.1922%
same,Moisture adsorption amount (%),[1]; relative humidity 35.0%,0.0893%
same,Moisture desorption amount (%),[1]; relative humidity 35.0%,0.2077%
same,Moisture adsorption amount (%),[1]; relative humidity 40.0%,0.1042%
same,Moisture desorption amount (%),[1]; relative humidity 40.0%,0.2206%
same,Moisture adsorption amount (%),[1]; relative humidity 45.0%,0.1204%
same,Moisture desorption amount (%),[1]; relative humidity 45.0%,0.2348%
same,Moisture adsorption amount (%),[1]; relative humidity 50.0%,0.1387%
same,Moisture desorption amount (%),[1]; relative humidity 50.0%,0.2497%
same,Moisture adsorption amount (%),[1]; relative humidity 55.0%,0.1563%
same,Moisture desorption amount (%),[1]; relative humidity 55.0%,0.2659%
same,Moisture adsorption amount (%),[1]; relative humidity 60.0%,0.1746%
same,Moisture desorption amount (%),[1]; relative humidity 60.0%,0.2822%
same,Moisture adsorption amount (%),[1]; relative humidity 65.0%,0.2016%
same,Moisture desorption amount (%),[1]; relative humidity 65.0%,0.3038%
same,Moisture adsorption amount (%),[1]; relative humidity 70.0%,0.2334%
same,Moisture desorption amount (%),[1]; relative humidity 70.0%,0.3289%
same,Moisture adsorption amount (%),[1]; relative humidity 75.0%,0.2619%
same,Moisture desorption amount (%),[1]; relative humidity 75.0%,0.3464%
same,Moisture adsorption amount (%),[1]; relative humidity 80.0%,0.2937%
same,Moisture desorption amount (%),[1]; relative humidity 80.0%,0.3627%
same,Moisture adsorption amount (%),[1]; relative humidity 85.0%,0.3268%
same,Moisture desorption amount (%),[1]; relative humidity 85.0%,0.3782%
same,Moisture adsorption amount (%),[1]; relative humidity 90.0%,0.3695%
same,Moisture desorption amount (%),[1]; relative humidity 90.0%,0.4013%
same,Moisture adsorption amount (%),[1]; relative humidity 95.0%,0.4243%
same,Moisture desorption amount (%),[1]; relative humidity 95.0%,0.4243%
